“And” between values parts separate entries of the source, which are not always exact repeats. Equal entries are not always repeated. Where no end group is shown, it is not given here.
Experiments:
OPM2/Luciferase cells = test: Tumor burden by bioluminescence imaging in xenografted mice; assay type: in vivo; settings: OPM2/Luciferase xenograft in SCID mice, velcade 1 mpk IV 3×/week, compared with vehicle-only
Method: Mice were injected with 75 mg/kg D-luciferin, anesthetized, and imaged 10 minutes after substrate injection. Total body luminescence was determined using a standardized region of interest encompassing the entire mouse using the Living Images software package (Caliper Life Sciences).
OPM2/Luciferase cells were transferred to SCID mice and allowed to reach tumor burden. Xenografted mice were treated with EU-5148 (20 mpk IV, 3×/week), velcade for (1 mpk IV, 3×/week), or a combination of these treatments. […] The combination treatment of EU-5148 with Velcade results in 92% reduction in tumor cell burden over same time period.

multiple myeloma = test: Patient M-protein (M-spike) response to Velcade/Bortezomib treatment; assay type: in vivo, human; set-up: key to Δ M-Spike: % decrease in M-protein over treatment period; settings: for Δ M-Spike: Velcade/Bortezomib combination regimen
Source text: To date, we have obtained Mitochondrial profiles from 14 multiple myeloma or plasma cell leukemia patients. Each of the samples tested came from patients treated with one of several different Velcade/Bortezomib combination regimens. The samples listed in Table 5 are viably frozen from a tissue bank or from fresh bone marrow delivered within a few hours of the biopsy. CD138 cells are purified from either source using two similar procedures that have been optimized for each respective tissue type. Profiles on frozen cells are performed immediately following purification. Profiles on fresh cells are performed immediately or on viably frozen CD138 positive cells. […] M-protein is an indication of myeloma activity and is widely used diagnostic marker of the severity of the disease. The patient M-protein response is converted to a percentage of the best response seen among the group of patients tested. The M-spike response is calculated as a percent decrease in M-protein over a given treatment period. […] The percent decrease is calculated with the following equation. The percent best response is used to normalize the data to a fixed scale where 100% is the best response and 0% is the worst response. It is calculated with the equation below. Cancer cells collected from a patient undergoing Velcade based treatment were mitochondrial profiled at three time points during the course of treatment (October 2010, January 2011, and May 2011). The profile was used to monitor the apoptotic predisposition of the CD-138 positive MM cells during treatment.

BCL-2 = BCL-2 (Homo sapiens, UniProt P10415); test: BH3 domain binding affinities to BCL-2
Sequence of BCL-2 (P10415 whole entry, the tested form may be a part): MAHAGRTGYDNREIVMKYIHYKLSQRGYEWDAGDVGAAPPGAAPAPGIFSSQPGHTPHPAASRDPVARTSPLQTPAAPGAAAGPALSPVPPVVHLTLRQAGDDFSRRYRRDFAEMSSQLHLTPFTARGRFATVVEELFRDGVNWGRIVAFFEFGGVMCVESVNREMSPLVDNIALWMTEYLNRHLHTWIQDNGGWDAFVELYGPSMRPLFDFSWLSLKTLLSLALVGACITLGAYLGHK

BCL-XL = BCL-XL (Homo sapiens, UniProt Q07817); test: BH3 domain binding affinities to BCL-XL
Sequence of BCL-XL (Q07817 whole entry, the tested form may be a part): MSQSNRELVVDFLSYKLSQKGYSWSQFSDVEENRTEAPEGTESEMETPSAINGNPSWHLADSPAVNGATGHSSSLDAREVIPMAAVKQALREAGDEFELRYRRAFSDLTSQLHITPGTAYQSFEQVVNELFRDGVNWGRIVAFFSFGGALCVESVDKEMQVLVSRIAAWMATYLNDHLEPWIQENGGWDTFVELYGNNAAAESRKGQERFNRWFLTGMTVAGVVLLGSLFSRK

NCI-H929 [1] = test: MTS viability assay, NCI-H929; assay type: cell-based; settings: Homo sapiens; NCI-H929, 48 hours
Method: (§1) The mitochondrial profiling assay was carried out in three steps: (1) cell preparation and counting, (2) cell permeabilization and peptide treatment, and (3) fluorescent readout (FIG. 1). Cells are suspended in Mitochondria loading Buffer with 0.005% digitonin, loaded with the cationic dye JC-1 (1 μM), and treated with 100 μM of one of the BH3 domain peptides: Bim, Bad, Noxa, and Puma. MOMP is followed by full mitochondrial membrane depolarization (ΔΨm), which is measured by treating the cells with the ionophore FCCP (p-trifluoromethoxy carbonyl cyanide phenyl hydrazone). Peptide (and FCCP) addition results in a decrease in membrane potential in suitably primed cells and is measured as a decrease in JC-1 fluorescence in a 384 well plate on a TecanGenios plate reader using an excitation of 535 nm and an emission of 590 nm.
(§2) Tables 3 and 4 show the percent priming of various cell lines, as determined by measuring the signal intensity of the JC-1 dye which is an indicator of mitochondrial depolarization. […] Viability was measured using an MTS assay. The IC50 is in μM.

Bcl-2 1863 = test: MTS viability assay, Bcl-2 1863; assay type: cell-based; settings: Bcl-2 primed cells (Bcl-2 1863)
Mcl-1 1780 [2] = test: MTS viability assay, Mcl-1 1780; assay type: cell-based; settings: for IC50: Mcl1-1780, Mcl-1 1780, 48 hours
Method: as §1, §2

DHL10 = test: MTS viability assay, DHL10; assay type: cell-based; settings: for IC50: DHL10 (Bax/Bak deficient), 48 hours
Method: as §1, §2

DHL6 [3] = test: MTS viability assay, DHL6; assay type: cell-based; settings: DHL6, 48 hours
Method: as §1, §2

LPN3 [4] = test: MTS viability assay, LPN3; assay type: cell-based; settings: LPN3, 48 hours
Method: as §1, §2

NCI-H929 [5] = test: Mitochondrial profiling assay (JC-1), NCI-H929; assay type: cell-based; settings: NCI-H929, percent priming, JC-1, 100 μM peptide
Method: as §1, §2

Mcl-1 1780 [6] = test: Mitochondrial profiling assay (JC-1), Mcl-1 1780; assay type: cell-based; settings: Mcl-1 1780, percent priming, JC-1, 100 μM peptide
Method: as §1, §2

DHL6 [7] = test: Mitochondrial profiling assay (JC-1), DHL6; assay type: cell-based; settings: DHL6, percent priming, JC-1, 100 μM peptide
Method: as §1, §2

LPN3 [8] = test: Mitochondrial profiling assay (JC-1), LPN3; assay type: cell-based; settings: LPN3, percent priming, JC-1, 100 μM peptide
Method: as §1, §2

In the case of CC(C)C[C@H](NC(=O)[C@H](Cc1ccccc1)NC(=O)c1cnccn1)B(O)O [Velcade, Bortezomib], the “mean tumor burden reduction (in words)” value (OPM2/Luciferase cells) is reported as “mean tumor burden reduction was observed”, the “Δ M-Spike” value (multiple myeloma; Patient No. 3039T) is reported as 64.71 and the “Δ M-Spike” value (multiple myeloma; Patient No. 3098T) is reported as 62.50. The “Δ M-Spike” value (multiple myeloma; Patient No. 3161T) was 12.90, the “Δ M-Spike” value (multiple myeloma; Patient No. 3187T) was 65.22 and the “Δ M-Spike” value (multiple myeloma; Patient No. 3188T) was 93.03. For the same molecule, the “Δ M-Spike” value (multiple myeloma; Patient No. 3191T) was 57.69, the “Δ M-Spike” value (multiple myeloma; Patient No. 3201T) was 87.50 and the “Δ M-Spike” value (multiple myeloma; Patient No. 3213T) was −10.00. For the same molecule, the “Δ M-Spike” value (multiple myeloma; Patient No. 3221T) was 52.38, the M-Spike (multiple myeloma; TB# 3098T2, Jan. 27, 2011, patient undergoing Velcade based treatment) was 0.8 g/dL and the M-Spike (multiple myeloma; TB# 3098T3, May 5, 2011, patient undergoing Velcade based treatment) was 0.3 g/dL. It also gave a M-Spike (multiple myeloma; TB# 3098T, Oct. 13, 2010, patient undergoing Velcade based treatment) of 1.7 g/dL.

With NLWAAQRYGRELRRMSDEFVDSFK [BAD BH3] the Kd (BCL-2) was 0.011 µM and the Kd (BCL-XL) was < 0.01 µM.

In the case of CC1(C)CCC(c2ccc(Cl)cc2)=C(CN2CCN(c3ccc(C(=O)NS(=O)(=O)c4ccc(N[C@H](CCN5CCOCC5)CSc5ccccc5)c(S(=O)(=O)C(F)(F)F)c4)cc3)CC2)C1 [ABT-263, Navitoclax], the IC50 (NCI-H929 [1]) is reported as 4 µM, the “cell-killing activity (in words)” value (Bcl-2 1863) is reported as “effective” and the IC50 (Mcl-1 1780 [2]) is reported as 17 µM. For the same molecule, the “cell-killing activity (in words)” value (Mcl-1 1780 [2]; Mcl-1 primed cells (Mcl-1 1780)) was “ineffective”, the IC50 (DHL10) was > 25 µM and the “cell-killing activity (in words)” value (DHL10; DHL-10 cells deficient in the Bax-Bak proteins) was “not responsive”. The IC50 (DHL6 [3]) was < 1 µM and the IC50 (LPN3 [4]) was 4.1 µM.

For COC1=CC(c2cc3ccccc3[nH]2)=N/C1=C\c1[nH]c(C)cc1C [Obatoclax], the IC50 (NCI-H929 [1]) was 1 µM, the IC50 (Mcl-1 1780 [2]) was 1.5 µM and the IC50 (DHL10) was 0.8 µM. It also gave an IC50 (DHL6 [3]) of 1.2 µM.

With “AELPPEFAAQLRKIGDKVYC [NOXA BH3, BH3 domain peptide]” the “Mcl-1 Priming State (NOXA Signal)” value (NCI-H929 [5]) was 74 (HIGH) %, the “Mcl-1 Priming State (NOXA Signal)” value (Mcl-1 1780 [6]) was 75 (HIGH) % and 71 (HIGH) % and the “Mcl-1 Priming State (NOXA Signal)” value (DHL6 [7]) was 18 (LOW) %. For the same molecule, the “Mcl-1 Priming State (NOXA Signal)” value (LPN3 [8]) was 58 (HIGH) %.
